Measured values as given in patent publication US6780596B2, “Methods for determining the activity of complex mixtures” (Ashni Naturaceuticals, Inc., priority 1998, dated 2004).

Test system: LNCaP prostate cells
Test: Phosphotyrosyl protein expression in LNCaP prostate cells (SDS-PAGE, anti-phosphotyrosine immunoblot)
Assay type: cell-based, human
Conditions: for number of phosphotyrosylprotein bands decreased in staining intensity / affected: of sixteen bands in dividing LNCaP cells, 15 to 90 kDa
From the text: Chemicals: Anti-phosphotyrosine antibodies may be purchased from Upstate Biotechnology (Lake Placid, N.Y.). Saw palmetto (Serenoa repens) extract may be obtained from Ashland Nutritional (Irvine Calif.). All other chemicals may be purchased from Sigma Chemical Company (St. Louis, Mo.) and are the highest purity commercially available.
Human Prostate Cell Line: The LNCaP prostate cell line (CRL-1740) is useful as a model for prostate hyperplasia and may be obtained from the American Type Culture Collection (Bethesda, Md.). LNCaP cells were originally isolated from a person and are characteristic of prostatic carcinoma. They are androgen and estrogen responsive, produce prostate specific antigen (PSA), and prostatic acid phosphatase in culture.
Cell Plating: LNCaP cells may be propagated as monolayers according to the instructions of the supplier. For experiments, cells may be plated at a density of 1×10^5 cells per mL in 100 mm plates, 20 mL per plate, 3 plates per treatment. […]
On day three, a subset of control LNCaP cells is synchronized to Go by reducing the serum concentration of the medium to 0.5%. These cells are termed quiescent, resting or unstimulated LNCaP cells.
After a four-day incubation period with the test materials, the test LNCaP cells may be collected by washing plates three times with ice-cold phosphate-buffered saline, pH 7.4 (PBS) over ice, removed by scraping, pelleted by centrifugation at 4° C. The cell pellet may be lysed for 20 min. in 20 mM Tris buffer (pH 8.0) with 137 mM NaCl, 10% glycerol, 1% Nonidet P-40, 1 mM phenylmethylsulfonyl fluoride, 0.15 units/mL aprotonin, and 1 mM sodium orthovanadate while on wet ice. Cell lysates are collected after centrifugation at 30,000 rpm at 4° C. for 10 minutes to separate cellular debris from lysates.
Gel Electrophoresis: Sodium dodecyl sulfate polyacrylamide gel electrophoresis (PAGE) is performed using 10% polyacrylamide gels, as described by Laemmli, U.K. and Favre, M., 80 Journal of Molecular Biology 575-99 (1973), with the modification that the cell lysates (100 μg protein/lane) are heated at 100° C. for three minutes.
Immunoblotting: The immunoblotting is performed as described by Towbin et al., 76 Proc. Natl. Acad. Sci. USA 4350 (1979), however, a Milliblot SDE electroblot apparatus (Millipore, Bedford, Mass.), is used to transfer proteins from the polyacrylamide gels to an IMMOBILON® membrane filter. Complete transfers are accomplished in 25-30 minutes at 500 mA. Membranes used for blotting are blocked by incubating in TBS (Tris buffered saline, 50 mM Tris, 150 mM NaCl, pH 7.5) containing 5% nonfat dry milk for 30 minutes at room temperature. Phosphotyrosylproteins are visualized by incubation of the blots with the anti-phosphotyrosine antibody in TBST (0.05% Tween 20 in TBS) for two hours and then a second incubation at room temperature with alkaline phosphatase-conjugated secondary antibody diluted 1:1000 in TBST for two hours. The enzymatic reaction is developed for 15 minutes. Molecular weights of immuno-stained proteins are estimated by adding molecular weight standards to reference lanes and staining the membrane filters with amido black 10B.
Blots are translated into TIFF-formatted files with a Microtech 600GS scanner and quantified using Scan Analysis (BIOSOFT™, Cambridge, UK). Summary scans are then printed and peak heights are measured directly from figure. One density unit (Du) is defined as one mm of the resulting peak height.
Protein Determination: Spectrophotometric determination of protein concentration is determined with bicinchoninic acid as reported by Smith, et al. Measurement of protein using bicinchoninic acid. 150 ANAL. BIOCHEM. 76-85 (1985).
Statistical Analysis: Dose responses are defined as three or more consecutive doses resulting in a consistent, reproducible appearance or disappearance of a phosphotyrosylprotein in the immunoblot. […]

CC[C@H](CC[C@@H](C)[C@H]1CC[C@H]2[C@@H]3CC=C4C[C@@H](O)CC[C@]4(C)[C@H]3CC[C@]12C)C(C)C [beta-sitosterol]
phosphotyrosylproteins at 45 and 50 kDa (50 μg beta-sitosterol/mL): faint bands | concentration at which the 36 and 40 kDa phosphotyrosylproteins disappear entirely (beta-sitosterol 5, 10 or 50 μg/mL): 10 µg/mL | number of phosphotyrosylprotein bands decreased in staining intensity / affected: four

CC(C)(C)NC(=O)[C@H]1CC[C@H]2[C@@H]3CC[C@H]4NC(=O)C=C[C@]4(C)[C@H]3CC[C@]12C [finasteride, Finasteride]
40 kDa band (0.05 μg/mL finasteride): barely visible | tyrosylphosphorylation of the 28 and 36 kDa proteins (0.05 μg/mL finasteride): completely eliminated | number of phosphotyrosylprotein bands decreased in staining intensity / affected: three

CC(C)=CCC/C(C)=C/C=C/C(C)=C/C=C/C(C)=C/C=C/C=C(C)/C=C/C=C(C)/C=C/C=C(\C)CCC=C(C)C [lycopene]
concentration at which the 15, 17 and 20 kDa phosphotyrosylproteins disappear entirely (lowest concentration tested): 100 ng/mL | number of phosphotyrosylprotein bands decreased in staining intensity / affected: fourteen

C/C1=C2/[N-][C@H]([C@H](CC(N)=O)[C@@]2(C)CCC(=O)NC[C@@H](C)OP(=O)([O-])O[C@H]2[C@@H](O)[C@@H](n3cnc4cc(C)c(C)cc43)O[C@@H]2CO)[C@]2(C)N=C(/C(C)=C3N=C(/C=C4N=C1[C@@H](CCC(N)=O)C\4(C)C)[C@@H](CCC(N)=O)[C@]\3(C)CC(N)=O)[C@@H](CCC(N)=O)[C@]2(C)CC(N)=O.[CH3-].[Co] [methylcobalamine]
phosphotyrosylproteins at 40 and 50 kDa (500 μg methylcobalamine/mL): faint bands | effective concentration (effect on phosphotyrosylprotein expression): approximately 500 μg/mL | concentration at which the 45 kDa phosphotyrosylprotein disappears entirely (methylcobalamine 5, 50 or 500 μg/mL): 500 µg/mL | number of phosphotyrosylprotein bands decreased in staining intensity / affected: three

C[C@H]1[C@H](C)CC[C@]2(C(=O)O)CC[C@]3(C)C(=CC[C@@H]4[C@@]5(C)CC[C@H](O)C(C)(C)[C@@H]5CC[C@]43C)[C@H]12 [ursolic acid]
concentration at which the phosphotyrosylproteins at 28, 30, 50 and 60 kDa are no longer visible (highest concentration tested): 5 µg/mL | concentration at which the 17, 20, 28 and 34 kDa phosphotyrosylproteins disappear entirely (lowest concentration tested): 0.5 µg/mL | number of phosphotyrosylprotein bands decreased in staining intensity / affected: ten
